Laboratory results taken from publication PMC11766601, “A Comparative Study of the In Vitro Intestinal Permeability of Pinnatoxins and Portimine” (Marine Drugs, 2025).

Experiments:
[1] = Toxin crossing and apparent permeability across Caco-2 cell monolayers (A to B), LC-MS/MS; type: in vitro ADME, human; conditions: human, Caco-2, A to B; for Papp at 2 h, 8 ng/mL / Papp at 6 h, 8 ng/mL: loaded 8 ng/mL; for Papp at 2 h, 16 ng/mL / Papp at 6 h, 16 ng/mL: loaded 16 ng/mL; for Papp at 2 h, 32 ng/mL / Papp at 6 h, 32 ng/mL: loaded 32 ng/mL
Protocol: (§1) All experiments were performed with human intestinal Caco-2 cells (ATCC-HTB37), acquired from the American Type Culture Collection (ATCC; Manassas, VA, USA). Caco-2 cells originate from a colorectal adenocarcinoma, but upon reaching confluence, they differentiate and express the characteristics of enterocytes. The cells were cultivated in minimum essential medium containing 5.5 mM D-glucose, Earle’s salts, and 2 mM L-alanyl-glutamine (MEM GlutaMAX™, Gibco, Bromont, QC, Canada) supplemented with 10% fetal bovine serum (FBS, Gibco), 1% non-essential amino acids, 50 U/mL penicillin, and 50 μg/mL streptomycin (Gibco) under humidified conditions (37 °C, 5% CO2, 95% humidity). The cells were grown for 3–4 days up to 80% confluence before trypsinization and sub-culture. For the experiments, the cells were seeded in TRANSWELL® plates (12 wells, 0.4 µm pore size; Costar®, Corning Incorporated, Corning, NY, USA) at a density of 90,000 cells/cm^2. Prior to toxin treatment, highly differentiated Caco-2 cells were obtained after 24–26 days of culture, with medium renewal every 2–3 days. Passage numbers between 30 and 40 were used for experiments.
(§2) PnTX-A, PnTX-G, PnTX-E, PnTX-H, and portimine stock solutions were prepared in methanol, while PnTX-F was provided in acetonitrile/acetic acid (50%/0.1%). For each toxin, the cells were incubated at 8, 16, and 32 ng/mL (diluted in HBSS) for 2 h, 6 h, and 24 h, with a final volume of 1.5% solvent. The controls were incubated with the cell culture medium containing the respective solvent of the toxin at 1.5%. Each experiment included three biological replicates. Two to three independent experiments were conducted.
(§3) The apical and basolateral compartments were collected after 2, 6, and 24 h treatment time. Parts of the solutions that were used to load the apical compartments were also stored (T0) to take into account the real concentration and not the estimated concentration. All the samples were stored at −20 °C until LC/MS analysis.
(§4) The LC-MS/MS analysis of toxins was implemented for the quantitative analysis of toxins. The LC system was an Agilent 1200 (Agilent Technologies, Santa Clara, CA, USA). The chromatographic separation was performed using a column Hypersil GOLD® C18 50 mm × 2.1 mm, 1.9 μm (Thermo Scientific, Waltham, MA, USA). Eluent A consisted of water, and eluent B of acetonitrile/water at a ratio of 95:5 (v/v), with both eluents containing 50 mM formic acid and 2 mM ammonium formate. The LC flow rate was 0.4 mL/min, and the gradient was programmed as follows: 10% B held for 0.5 min, 10–90% B in 5 min, 90% B held for 1 min, 90–10% B in 0.5 min, and 10% B held for 3.0 min, for a total run time of 10 min. The injection volume was 5 μL, while the column temperature was maintained at 40 °C. The column effluent was transferred via a divert valve (Valco Instruments Co., Inc., Houston, TX, USA), either to the mass spectrometer (between 1.7 and 5.5 min) or to waste.
(§5) The detection system was constructed with an API 4000 triple quadrupole mass spectrometer (Sciex, Framingham, MA, USA) equipped with an ElectroSpray Ionization (ESI) source (Turbo V). The mass spectrometer was operated in positive ESI mode. The source temperature was set at 600 °C, and the spray voltage was 5500 V. Air was used as a nebulizer gas and an auxiliary gas, with a gas pressure of 40 and 60 psi, respectively. Meanwhile, the curtain gas and collision gas were nitrogen, with a gas pressure of 15 and 8 psi, respectively. The mass spectrometer was operated in multiple reaction monitoring mode (MRM). One transition was used for quantification (Q) and another as a qualifier transition (q). A mass resolution of 0.7 Da full width at half maximum (FWHD) was set on the first (Q1) and the third (Q3) quadrupoles. Instrument control and data were handled with Analyst software version 1.5.1 (Sciex, Framingham, MA, USA).
(§6) The portimine and PnTX retention times varied between 2.7 and 4.4 min (Figure S1). […]

Caco-2 cell monolayers [2] = assay: as above; type: in vitro ADME, human; conditions: for % theoretical amount of toxin crossing the Caco-2 cell monolayers: relative to theoretical loaded concentration; for Percentage of toxin crossing the Caco-2 cell monolayers: A to B, relative to quantified T0; for permeability / oral bioavailability class from Caco-2 Papp: threshold Papp > 1.5 × 10^−6 cm·s^−1 = highly penetrative
Protocol: as §1, §2, §3, §4, §5, §6

Caco-2 cells = assay: Trans-epithelial electrical resistance (TEER) of differentiated Caco-2 monolayers; type: cell-based, human; conditions: 24 h
Protocol: as §1, §2
Epithelial integrity was examined by measuring the TEER between the apical and basolateral compartments. After rinsing with a HBSS solution (HBSS, HEPES 5 mM, pH 7.4), the Caco-2 monolayers were equilibrated for 30 min at 37 °C with 300 and 1000 µL HBSS in the apical (A) and basolateral (B) chambers, respectively. Then, the content of the apical compartment was replaced with 500 µL HBSS-containing toxins. TEER was quantified with a Millipore Millicell Electrical Resistance System (ERS Millipore, EMD Millipore Corporation, Burlington, MA, USA). The mean value of two measurements per well before and after the treatment was calculated and multiplied by the surface of the insert to obtain Ω × cm^2. After blank subtraction, the results were presented as a percentage of the solvent control.

mice = conditions: cited from earlier work
Caco-2 cell monolayers [3] = assay: Lucifer Yellow paracellular permeability (barrier integrity); type: cell-based, human; conditions: 24 h
Protocol: as §1, §2
For the assay, both compartments of the insert system were washed with Hank’s balanced salt solution (HBSS). Then, 0.5 mL of 0.1 mg/mL Lucifer Yellow in HBSS buffer and 1 mL of pure HBSS buffer were added to the apical and basolateral compartments, respectively. After a 2 h incubation at 37 °C, the media of the basolateral compartments were collected and the fluorescence of each compartment was measured in triplicate (excitation: 405 nm, emission: 520 nm) with a FLUOstar Optima microplate reader (BMG Labtech, Ortenberg, Germany). After subtraction of the blank (HBSS), the permeability of the […] was calculated against the value obtained for pure LY and reported as % permeability.

rats = tested on: rats; design: method as in PMID 34380275; conditions: six hours after gavage of rats with [H^3] 100 µg/kg; liver, kidney, spleen, brain regions; cited from earlier work
[4] = design: method as in PMID 32246951; conditions: Anses 2020; cited from earlier work
cancer cells = conditions: cancer cells; cited from earlier work

| SMILES | Papp at 2 h, 8 ng/mL [1] [×10⁻⁶ cm/s] | Papp at 2 h, 16 ng/mL [1] [×10⁻⁶ cm/s] | Papp at 2 h, 32 ng/mL [1] [×10⁻⁶ cm/s] | Papp at 6 h, 8 ng/mL [1] [×10⁻⁶ cm/s] | Papp at 6 h, 16 ng/mL [1] [×10⁻⁶ cm/s] | Papp at 6 h, 32 ng/mL [1] [×10⁻⁶ cm/s] | % theoretical amount of toxin crossing the Caco-2 cell monolayers (Caco-2 cell monolayers [2]; 2 h, 8 ng/mL) [%] | % theoretical amount of toxin crossing the Caco-2 cell monolayers (Caco-2 cell monolayers [2]; 2 h, 16 ng/mL) [%] | % theoretical amount of toxin crossing the Caco-2 cell monolayers (Caco-2 cell monolayers [2]; 2 h, 32 ng/mL) [%] | Percentage of toxin crossing the Caco-2 cell monolayers (Caco-2 cell monolayers [2]; 2 h, loaded 8 ng/mL) [%] | Percentage of toxin crossing the Caco-2 cell monolayers (Caco-2 cell monolayers [2]; 2 h, loaded 16 ng/mL) [%] | Percentage of toxin crossing the Caco-2 cell monolayers (Caco-2 cell monolayers [2]; 2 h, loaded 32 ng/mL) [%] | % theoretical amount of toxin crossing the Caco-2 cell monolayers (Caco-2 cell monolayers [2]; 6 h, 8 ng/mL) [%] | % theoretical amount of toxin crossing the Caco-2 cell monolayers (Caco-2 cell monolayers [2]; 6 h, 16 ng/mL) [%] | % theoretical amount of toxin crossing the Caco-2 cell monolayers (Caco-2 cell monolayers [2]; 6 h, 32 ng/mL) [%] | Percentage of toxin crossing the Caco-2 cell monolayers (Caco-2 cell monolayers [2]; 6 h, loaded 8 ng/mL) [%] | Percentage of toxin crossing the Caco-2 cell monolayers (Caco-2 cell monolayers [2]; 6 h, loaded 16 ng/mL) [%] | Percentage of toxin crossing the Caco-2 cell monolayers (Caco-2 cell monolayers [2]; 6 h, loaded 32 ng/mL) [%] | permeability / oral bioavailability class from Caco-2 Papp (Caco-2 cell monolayers [2]) | other results |
| --- | --- | --- | --- | --- | --- | --- | --- | --- | --- | --- | --- | --- | --- | --- | --- | --- | --- | --- | --- | --- |
| C=C1CCCC2=NCC(C)C(C)CC23CCC(C2CCC(=O)O2)=CC3C2OC3(CC(C)CC2O3)CC2OC3(CCC4(OC(CCC4(C)O)C1)O3)CC(C)C2O (centres unmarked) [PnTX-F] | 8.95 ± 1.69 | 6.28 ± 2.37 | 6.94 ± 2.03 | 16.1 ± 0.24 | 11.4 ± 2.88 | 13.7 ± 1.09 | 4.75 ± 0.35 | 4.00 ± 0.00 | 5.03 ± 0.31 | 14.43 ± 2.73 | 10.12 ± 3.82 | 11.20 ± 3.27 | 8.75 ± 2.12 | 7.44 ± 0.97 | 10.31 ± 2.83 | 26.00 ± 0.52 | 18.36 ± 4.64 | 22.09 ± 1.76 | high oral bioavailability | percentage of toxin crossing (text summary over 8-32 ng/mL) (Caco-2 cell monolayers [2]; 2 h): around 12%; TEER (Caco-2 cells; 32 ng/mL): 67 ± 5.6 % of the control value; effect on TEER (Caco-2 cells; 8 and 16 ng/mL): slight non-significant decrease; macroscopic lesions on the intestine, other organs and tissues (mice; mice, oral exposure): no macroscopic lesions; effect on LY permeability (Caco-2 cell monolayers [3]; all concentrations (8, 16, 32 ng/mL)): significant increase |
| C=CC1=CC2C3OC4(CC5CCCC6(CCC7(OC(CCC7(C)O)CC(=C)CCCC7=NCC(C)C(C)CC72CC1)O6)O5)CC(C)C(O)C3O4 (centres unmarked) [PnTX-G, Pinnatoxin G] | 9.69 ± 3.25 | 14.4 ± 2.7 | 14.3 ± 3.45 | 21.4 ± 5.82 | 22.8 ± 3.26 | 26.9 ± 3.82 | 6.83 ± 1.04 | 8.37 ± 1.19 | 8.64 ± 0.53 | 15.62 ± 5.24 | 23.32 ± 4.36 | 23.07 ± 5.56 | 15.17 ± 0.58 | 13.25 ± 1.30 | 16.58 ± 2.86 | 34.43 ± 9.39 | 36.83 ± 5.26 | 43.41 ± 6.15 | high oral bioavailability | effect on TEER (Caco-2 cells; 16 and 32 ng/mL): slight, but non-significant, decrease; effect on the small intestine (mice; mice orally treated with 300 μg/kg and above, villous atrophy, focal degeneration of epithelial cells): alteration of the small intestine; onset of toxicity after oral exposure (mice; oral exposure to a certain dose): within one hour; tissue distribution of radioactivity (rats): radioactivity was distributed in the peripheral organs; provisional acute health-based guidance value [4]: 0.13 μg PnTX-G/kg body weight per day; effect on passage of LY (Caco-2 cell monolayers [3]): lower effect |
| C=CC1=CC2C3O[C@]4(CCC(O4)[C@@H](C)C[C@@H](O)C3=O)CC(=O)C3=NCC[C@@]32CC1 (some centres unmarked) [Portimine-B, portimine-B, reference compound] | – | – | – | – | – | – | – | – | – | – | – | – | – | – | – | – | – | – | – | apoptosis induction (cancer cells): induces apoptosis in cancer cells but with less activity |
